Test results: publication PMC6792352, “Limited Chemical Structural Diversity Found to Modulate Thyroid Hormone Receptor in the Tox21 Chemical Library” (Environmental Health Perspectives, 2019)
Counter-ions that a name gives are not always drawn. Like-named read-outs stand apart in the source and are kept apart here.

Columns and labels:
[1] = test system: thyroid hormone receptor (endogenous TRα and TRβ); experiment: GH3-TRE-Ag primary qHTS, luciferase reporter, agonist mode (TOX21_TR_LUC_GH3_Agonist, aeid 803); type: cell-based, rat
in vitro = conditions: rat, gh3-tre-luc cells, AC50 (uM) modified / 1000
[2] = test system: thyroid hormone receptor (TR); experiment: Classification of TR actives across characterization assays (TR-Ag / RXR-Ag; TR model binary); conditions: candidate chemicals in Tables 2 and 3 define actives
From the text: Active rate comparison between receptors. […]; [Kleinstreuer et al. 2017]). We first removed chemicals classified as pharmaceuticals because these sets of chemicals are biased toward drugs targeting estrogen receptors and androgen receptors. […]. For TR, we cross-referenced these same chemicals for testing against TR and used candidate chemicals in Tables 2 and 3 to define active rates.
Complete results from both GH3-TRE qHTS agonist, antagonist, and viability mode for the 8,305 compounds are provided in Excel Table S2. […]. […]. Together with some potential false negatives, these chemicals, totaling 84 in all, were screened for activity in a series of assays for confirmation in the GH3-TRE-Ag assay; specificity screening in the TRβ-UAS-bla HEK 293T and RXRα-UAS-bla HEK 293T mammalian one-hybrid assays; viability assays for the HEK293T parental cell line; and orthogonal screening in two TR:coactivator recruitment assays, TRa-coa and TRb-coa. […].

GH3-TRE-Luc cell line = conditions: read-out: AC50 (uM) modified / 1000, viability, 1 nM T3 present, 24 h
[3] = aeid 803 TOX21_TR_LUC_GH3_Agonist, tcpl output

O=C([O-])[C@H](O)[C@@H](O)[C@H](O)[C@H](O)CO.O=C([O-])[C@H](O)[C@@H](O)[C@H](O)[C@H](O)CO.[Ba+2] [D-Gluconic acid, barium salt]
resp_max (maximum response value) ([1]; Table S2, aeid 803, per sample): 3.109 percent_activity | hitc ([1]; Table S2, aeid 803, tcpl hit call): 0 | hitc_modified ([1]; Table S2, aeid 803, final hitc after manual review): 0 | AC50 ([1]; Table S2, aeid 803, inactive set to 1000, read-out: AC50 (uM) modified): > 50 µM

NC(CO)(CO)CO [tromethamine]
activity in GH3-TRE agonist assay [1]: completely inactive | CC50 at 24 h (in vitro): > 90 µM

CCCCCCCCCC=CCC1CC(=O)OC1=O (stereo not shown) [(2-Dodecenyl)succinic anhydride]
TR_Model_Binary_Agonist [2]: 0 | TR_Model_Binary_Antagonist [2]: 0 | CC50 at 24 h (in vitro): > 90 µM

CC(=O)OC(C)c1ccccc1 (racemic) [(+/-)-alpha-Methylbenzyl acetate]
TR_Model_Binary_Agonist [2]: 0 | TR_Model_Binary_Antagonist [2]: 0 | CC50 at 24 h (in vitro): > 90 µM

N[C@@H](Cc1cc(I)c(O)c(I)c1)C(=O)O [3,5-diiodo-L-tyrosine]
activity in GH3-TRE agonist assay [1]: completely inactive | max_mean [1]: 0.9106 percent_activity | max_med ([1]; aeid 803, at max_med_conc (log) -0.39794, coff 20): 0.5533 percent_activity | hitc ([1]; aeid 803 TOX21_TR_LUC_GH3_Agonist, modl cnst): 0 | resp_max [1, 3]: 3.287 percent_activity | resp_min [1, 3]: -1.703 percent_activity | CC50 at 24 h (in vitro): > 50 µM

Oc1cccc(-c2c3nc(c(-c4cccc(O)c4)c4ccc([nH]4)c(-c4cccc(O)c4)c4nc(c(-c5cccc(O)c5)c5ccc2[nH]5)CC4)C=C3)c1 [Temoporfin]
CC50 (GH3-TRE-Luc cell line; Tox21_110001=Tox21_113297): 11.2 µM | CC50 at 24 h (in vitro): 13.6 µM

O=C(CCCCCCC(=O)Nc1ccccc1)NO [Suberoylanilide hydroxamic acid]
CC50 (GH3-TRE-Luc cell line; Tox21_110001=Tox21_112605): 2.46 µM | CC50 at 24 h (in vitro): 2.15 µM

CC[C@@]1([C@@H]2O[C@@H]([C@H]3O[C@@](O)(CO)[C@H](C)C[C@@H]3C)C[C@@H]2C)CC[C@H]([C@]2(C)CC[C@]3(C[C@H](O)[C@@H](C)[C@@H]([C@@H](C)[C@@H](OC)[C@H](C)C(=O)O)O3)O2)O1 [Monensin sodium]
CC50 (GH3-TRE-Luc cell line; Tox21_110001=Tox21_113191): 0.38 µM | CC50 at 24 h (in vitro): 0.446 µM

CC(C)[C@@]1(NC(=O)[C@@H]2C[C@@H]3c4cccc5[nH]cc(c45)C[C@H]3N(C)C2)O[C@@]2(O)[C@@H]3CCCN3C(=O)[C@H](Cc3ccccc3)N2C1=O [Dihydroergocristine]
CC50 (GH3-TRE-Luc cell line; Tox21_110001=Tox21_113115): 21.9 µM | CC50 at 24 h (in vitro): 21 µM

CCCCCCCCCCCCc1ccccc1S(=O)(=O)O [Sodium dodecylbenzenesulfonate]
CC50 (GH3-TRE-Luc cell line; Tox21_110001=Tox21_300506): 77.4 µM | CC50 at 24 h (in vitro): 49.5 µM

CC1=C(/C=C/C(C)=C/C=C/C(C)=C/C(=O)O)C(C)(C)CCC1 [all trans-Retinoic acid]
CC50 (GH3-TRE-Luc cell line; Tox21_110001=Tox21_300305): 77.6 µM | CC50 at 24 h (in vitro): 71.8 µM

c1ccc(Nc2ccc3ccccc3c2)cc1 [N-Phenyl-2-naphthylamine]
CC50 (GH3-TRE-Luc cell line; Tox21_110001=Tox21_302900): > 90 µM | CC50 at 24 h (in vitro): 47.3 µM

CN1[C@@H]2CC[C@H]1C[C@@H](OC(c1ccccc1)c1ccccc1)C2 [Benztropine]
CC50 (GH3-TRE-Luc cell line; Tox21_110001=Tox21_111695): 13.8 µM | CC50 at 24 h (in vitro): 24.5 µM

O=[N+]([O-])C(Br)(CO)CO [Bronopol]
CC50 (GH3-TRE-Luc cell line; Tox21_110001=Tox21_112079): 21.8 µM | CC50 at 24 h (in vitro): 22 µM

O=P(OC(CCl)CCl)(OC(CCl)CCl)OC(CCl)CCl [Tris(1,3-dichloro-2-propyl) phosphate]
CC50 (GH3-TRE-Luc cell line; Tox21_110001=Tox21_300194): 36.6 µM | CC50 at 24 h (in vitro): 61.2 µM

Nc1c(/N=N/c2ccc(-c3ccc(/N=N/c4cc(S(=O)(=O)O)c5ccccc5c4N)cc3)cc2)cc(S(=O)(=O)O)c2ccccc12 [C.I. Direct Red 28]
CC50 (GH3-TRE-Luc cell line; Tox21_110001=Tox21_111605): 16.3 µM | CC50 at 24 h (in vitro): 27 µM

O=C1c2ccccc2C(=O)N1SC(Cl)(Cl)Cl [Folpet]
CC50 (GH3-TRE-Luc cell line; Tox21_110001=Tox21_301077): 2.3 µM | CC50 at 24 h (in vitro): 4.47 µM

CC(C)(c1cc(Br)c(O)c(Br)c1)c1cc(Br)c(O)c(Br)c1 [3,3',5,5'-Tetrabromobisphenol A]
CC50 (GH3-TRE-Luc cell line; Tox21_110001=Tox21_201981): 43.3 µM | CC50 (GH3-TRE-Luc cell line; Tox21_110001=Tox21_300561): 38.6 µM | CC50 at 24 h (in vitro): 39.3 µM

Nc1ccc(O)c(N)c1 [2,4-Diaminophenol dihydrochloride]
CC50 (GH3-TRE-Luc cell line; Tox21_110001=Tox21_303017): 45.5 µM | CC50 at 24 h (in vitro): 41.5 µM

Nc1ccc(Cl)cc1N [4-Chloro-1,2-diaminobenzene]
CC50 (GH3-TRE-Luc cell line; Tox21_110001=Tox21_400037): > 90 µM | CC50 at 24 h (in vitro): 73 µM

c1cc(N(CC2CO2)CC2CO2)ccc1OCC1CO1 (stereo not shown) [4-(Diglycidylamino)phenyl glycidyl ether]
CC50 (GH3-TRE-Luc cell line; Tox21_110001=Tox21_302646): 25.4 µM | CC50 at 24 h (in vitro): 30.4 µM

O=S(=O)(O)c1ccc(N=Nc2c(O)ccc3cc(S(=O)(=O)O)ccc23)cc1 [FD&C Yellow 6]
CC50 (GH3-TRE-Luc cell line; Tox21_110001=Tox21_300407): 65.1 µM | CC50 at 24 h (in vitro): 38.5 µM

CCCCCCCCn1sccc1=O [Octhilinone]
CC50 (GH3-TRE-Luc cell line; Tox21_110001=Tox21_300566): 3.8 µM | CC50 at 24 h (in vitro): 5.52 µM

CC(C)CC(C)(c1ccc(O)cc1)c1ccc(O)cc1 [4,4'-(4-Methylpentane-2,2-diyl)diphenol]
CC50 (GH3-TRE-Luc cell line; Tox21_110001=Tox21_303608): 34 µM | CC50 at 24 h (in vitro): 41.6 µM

OCCN1CCN(CCCN2c3ccccc3C=Cc3ccccc32)CC1 [Opipramol dihydrochloride]
CC50 (GH3-TRE-Luc cell line; Tox21_110001=Tox21_113153): 8.37 µM | CC50 at 24 h (in vitro): 6.78 µM

C=CCOC(Cn1ccnc1)c1ccc(Cl)cc1Cl (stereo not shown) [Imazalil]
CC50 (GH3-TRE-Luc cell line; Tox21_110001=Tox21_300720): 79.9 µM | CC50 at 24 h (in vitro): 53.5 µM

COc1cc2c(cc1O)CCN[C@]21CS[C@@H]2c3c(OC(C)=O)c(C)c4c(c3[C@H](COC1=O)N1[C@@H]2[C@H]2c3c(cc(C)c(OC)c3O)C[C@@H]([C@@H]1O)N2C)OCO4 [Trabectedin]
CC50 (GH3-TRE-Luc cell line; Tox21_110001=Tox21_113236): 0.0049 µM | CC50 at 24 h (in vitro): 0.00433 µM

Nc1cc([N+](=O)[O-])ccc1O [2-Amino-4-nitrophenol]
CC50 (GH3-TRE-Luc cell line; Tox21_110001=Tox21_302788): 48.2 µM | CC50 at 24 h (in vitro): 62.3 µM

OC(CCN1CCCCC1)(c1ccccc1)C1CC2C=CC1C2 (stereo not shown) [Biperiden hydrochloride]
CC50 (GH3-TRE-Luc cell line; Tox21_110001=Tox21_113064): 27 µM | CC50 at 24 h (in vitro): 22.6 µM

O=Cc1ccccc1C=O [1,2-Benzenedicarboxaldehyde]
CC50 (GH3-TRE-Luc cell line; Tox21_110001=Tox21_112347): 8.06 µM | CC50 at 24 h (in vitro): 4.89 µM

Cc1ccc(N)c(N)c1 [3,4-Diaminotoluene]
CC50 (GH3-TRE-Luc cell line; Tox21_110001=Tox21_300507): 18.4 µM | CC50 at 24 h (in vitro): 32.1 µM

Cc1cc(Cc2cc(C)cc(C(C)(C)C)c2O)c(O)c(C(C)(C)C)c1 [2,2'-Methylenebis(4-methyl-6-tert-butylphenol)]
CC50 (GH3-TRE-Luc cell line; Tox21_110001=Tox21_302923): 10.1 µM | CC50 at 24 h (in vitro): 11.5 µM

CC1=C(/C=C/C(C)=C/C=C/C(C)=C/CO)C(C)(C)CCC1 [Retinol]
CC50 (GH3-TRE-Luc cell line; Tox21_110001=Tox21_300287): 85.7 µM | CC50 at 24 h (in vitro): 63.5 µM
